{"source": "patent US20230295088A1", "about": "“INSULIN SENSITIZERS FOR THE TREATMENT OF DIABETES MELLITUS” (University of Iowa Research Foundation, priority 2020, published 2023)", "key": {"[1]": {"system": "GLUT4 translocation in C2C12 myoblast cell line stably expressing HiBiT-GLUT4 (HBG4)", "assay": "HiBiT (NanoBit) luminescence GLUT4 translocation assay in HBG4 C2C12 cells", "format": "cell-based, mouse", "excerpt": "An assay was used to identify potentiators of insulin-stimulated GLUT4 translocation. In one embodiment, the assay employs Nanobit technology. This technology is based on the recombination of two complementary fragments, HiBiT and LgBiT, of the Nanoluc luciferase. HiBit was fused to an extracellular region of GLUT4 to allow for the rapid quantitation of its the surface density in live cells by adding the reconibinantly produced complementary fragment LgBiT and the luciferase substrate. Since LgBiT is not membrane permeant, only proteins at the plasma membrane are quantified. To measure GLUT4 translocation, a stable C2C12 myoblast cell line was prepared by expressing a HiBiT-tagged mouse GLUT4. […] The Chembridge Diverset library of 49,600 compounds was screened and 1264 hits were identified. A subset of those hits were selected and retested in the presence and absence of insulin.\nDevelopment of a HTS assay for real-time measurement of GLUT4 translocation. To measure GLUT4 translocation in a homogenous and HIS amenable manner, NanoBit technology was used. This technology relies on the rapid recombination of 2 fragments of the Nanoluc luciferase (HiBit and LgBiT) with high affinity for each other. Fragments have no enzymatic activity on their own but generate a bright luminescent signal when recombined. A C2C12 myoblast cell line was prepared that stably expressed HiBiT-GLUT4 (HBG4), in which the small 11 amino acid HiBiT fragment was inserted into the first extracellular loop of GLUT4. A C-terminal mCherry was also added for microscopic detection. The C2C12 line was chosen as an in vitro model because it is derived from skeletal myoblasts and translocate GLUT4 in response to insulin. Detection of plasma membrane density of HBG4 is achieved by adding recombinant LgBit and substrate to live cells. The assay can be conducted as an endpoint where cells are incubated with insulin before measuring luminescence or as a kinetic assay by adding LgBiT and substrate at the beginning of the experiment and monitor real-time insulin-stimulated GLUT4 translocation.\nAn assay to measure GLUT4 translocation in a homogenous and HIS amenable manner using NanoBit technology was developed. This technology relies on the rapid recombination of 2 fragments of the Nanoiuc luciferase (HiBit and LgBiT) with high affinity for each other. Fragments have no enzymatic activity on their own but generate a bright luminescent signal when recombined. A C2C12 myoblast cell line stably expressing HiBiT-GLUT4 (HBG4), in which the small 11 amino acid HiBiT fragment was inserted into the first extracellular loop of GLUT4 was prepared. A C-terminal mCherry was also added for microscopic detection (FIGS. 1A and B). The C2C12 line was chosen as an in-vitro model because it is derived from skeletal myoblasts and translocates GLUT4 in response to insulin. Detection of plasma membrane density of HBG4 is achieved by adding recombinant LgBit and substrate to live cells (FIG. 1C). The assay can be conducted as a kinetic assay by adding LgBiT and substrate at the beginning of the experiment and monitoring real-time insulin-stimulated GLUT4 translocation (FIGS. 1D and E)."}, "[2]": {"system": "primary adipocytes", "assay": "Insulin-stimulated glucose uptake in primary adipocytes", "format": "cell-based, mouse", "description": "C3 potentiates insulin action in primary adipocytes and in live mice. Using HBG4 mice, insulin stimulated GLUT4 translocation of endogenous GLUT4 was measured in primary skeletal muscle fibers and primary adipocytes. Enhancement of insulin-stimulated translocation of endogenous GLUT4 was also shown in primary adipocytes in the presence of C3. In parallel dishes, increased insulin-stimulated glucose uptake in HBG4 primary adipocyte treated with C3 was found. […] To determine if the HBG4 mouse can be used to measure GLUT4 translocation in vivo, HBG4 mice were pretreated with daily IP injections of vehicle or 50 mg/Kg C3 for 3 days. On the day of the experiment, mice were injected with vehicle or insulin IP followed by a subcutaneous injection of LgBiT and substrate around the leg muscles. Mice were then anesthetized and placed into an IVIS system to measure luminescence. […] Baseline signal was detected in vehicle and C3 treated HBG4 mice. […] It also further confirms the insulin-sensitizing activity of C3 in vivo."}, "[3]": {"system": "endogenous GLUT4 in primary adipocytes", "assay": "Insulin-stimulated translocation of endogenous GLUT4 in HBG4 primary adipocytes", "format": "cell-based, mouse", "description": "Generating a mouse model for measurement of GLUT4 translocation ex vivo and in-vivo. To enable the validation of identified compounds in a relevant system, a mouse model in which the coding sequence for HiBiT was inserted in the first extracellular loop of endogenous GLUT4 using CRISPR/Cas9 (HBG4 mouse) was prepared. […] GLUT4 was detected in skeletal muscle, white adipose tissue, and brown adipose tissue but not in the brain, spleen, liver, or pancreas, thus, confirming the normal distribution of HiBit-labeled GLUT4 and the ability of this assay to detect endogenous GLUT4 in mouse tissues.\nC3 potentiates insulin action in primary adipocytes and in live mice. Using HBG4 mice, insulin stimulated GLUT4 translocation of endogenous GLUT4 was measured in primary skeletal muscle fibers and primary adipocytes. Enhancement of insulin-stimulated translocation of endogenous GLUT4 was also shown in primary adipocytes in the presence of C3. In parallel dishes, increased insulin-stimulated glucose uptake in HBG4 primary adipocyte treated with C3 was found. […] To determine if the HBG4 mouse can be used to measure GLUT4 translocation in vivo, HBG4 mice were pretreated with daily IP injections of vehicle or 50 mg/Kg C3 for 3 days. […] Mice were then anesthetized and placed into an IVIS system to measure luminescence. […] Baseline signal was detected in vehicle and C3 treated HBG4 mice. […]"}, "[4]": {"system": "GLUT4 translocation in HBG4 mice", "assay": "In vivo GLUT4 translocation in HBG4 mice (IVIS luminescence)", "design": "species or system mouse", "conditions": "HBG4 mice, daily IP 50 mg/Kg for 3 days, insulin IP", "description": "C3 potentiates insulin action in primary adipocytes and in live mice. Using HBG4 mice, insulin stimulated GLUT4 translocation of endogenous GLUT4 was measured in primary skeletal muscle fibers and primary adipocytes. Enhancement of insulin-stimulated translocation of endogenous GLUT4 was also shown in primary adipocytes in the presence of C3. In parallel dishes, increased insulin-stimulated glucose uptake in HBG4 primary adipocyte treated with C3 was found. […] To determine if the HBG4 mouse can be used to measure GLUT4 translocation in vivo, HBG4 mice were pretreated with daily IP injections of vehicle or 50 mg/Kg C3 for 3 days. On the day of the experiment, mice were injected with vehicle or insulin IP followed by a subcutaneous injection of LgBiT and substrate around the leg muscles. Mice were then anesthetized and placed into an IVIS system to measure luminescence. […] Baseline signal was detected in vehicle and C3 treated HBG4 mice. […]\nDIO HBG4 mice were treated with vehicle or C59 for 2 weeks and injected i.v. with an adenovirus coding for a secreted form of LgBiT (allowing LgBiT production and secretion predominantly by the liver into the circulation) 2 days prior to the experiment. Animal were then injected with saline or insulin 10 minutes before i.v. injection of substrate and luminescence imaging using an IVIS system."}, "[5]": {"system": "lean mice", "assay": "Glucose tolerance test in lean mice", "format": "in vivo, mouse", "conditions": "single injection before GTT", "description": "C3 improves glucose tolerance in lean and obese insulin resistant mice. To test whether C3 improves glucose handling, lean mice were injected with vehicle or C3 30 minutes before performing a glucose tolerance test. […] To further determine if C3 can reverse glucose intolerance, WT mice were made insulin-resistant by feeding them a high fat diet (HFD) for a period of 10 weeks. Diet induced obese (DIO) mice were then injected with vehicle or C3 for 2 weeks while remaining on HFD. […] Together those results establish in vivo efficacy of C3 for the treatment of insulin resistance."}, "[6]": {"system": "diet-induced obese (DIO) mice", "assay": "Glucose tolerance, fasting glucose and insulin in diet-induced obese (DIO) insulin-resistant mice", "format": "in vivo, mouse", "description": "To test whether C3 improves glucose handling, WT mice were made insulin-resistant by feeding them a high fat diet (HFD) for a period of 10 weeks. After 10 weeks, mice were injected with vehicle. C3 (20 mg/kg), or the TZD rosiglitazone (20 mg/kg) for 2 weeks while remaining on the HFD. […] To further test the in vivo efficacy of C3, a glucose tolerance test (GTT) was perfromed.\nTo test whether C3 improves glucose handling, lean mice were injected with vehicle or C3 30 minutes before performing a glucose tolerance test. […] To further determine if C3 can reverse glucose intolerance, WT mice were made insulin-resistant by feeding them a high fat diet (HFD) for a period of 10 weeks. Diet induced obese (DIO) mice were then injected with vehicle or C3 for 2 weeks while remaining on HFD."}, "[7]": {"system": "liver", "assay": "Liver toxicity markers and liver triglyceride in treated mice", "format": "in vivo, mouse", "excerpt": "(§1) C3 is not liver toxic and acts through a different mechanism than TZDs. […] Deleterious side effect or TZDs are due to their agonism of PPARg."}, "[8]": {"biological_target": "T1, PPARg (Homo sapiens, UniProt P37231)", "T1 sequence (P37231 1-505)": "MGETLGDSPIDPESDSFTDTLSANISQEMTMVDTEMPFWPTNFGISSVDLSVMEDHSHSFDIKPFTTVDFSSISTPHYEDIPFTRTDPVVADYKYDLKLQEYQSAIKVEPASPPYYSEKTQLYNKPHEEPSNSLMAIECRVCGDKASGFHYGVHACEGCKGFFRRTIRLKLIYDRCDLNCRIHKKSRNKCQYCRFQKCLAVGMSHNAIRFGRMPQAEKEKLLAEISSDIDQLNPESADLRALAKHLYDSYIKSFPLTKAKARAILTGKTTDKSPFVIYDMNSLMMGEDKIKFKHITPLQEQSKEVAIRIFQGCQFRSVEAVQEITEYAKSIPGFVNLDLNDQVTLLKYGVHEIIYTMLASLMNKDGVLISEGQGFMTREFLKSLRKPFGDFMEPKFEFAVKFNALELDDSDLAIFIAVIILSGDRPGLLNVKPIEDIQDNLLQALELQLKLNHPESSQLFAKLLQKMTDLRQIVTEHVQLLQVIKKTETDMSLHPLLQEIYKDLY", "assay": "Luminescent PPARg reporter assay in vitro", "format": "cell-based", "excerpt": "as §1"}, "[9]": {"conditions": "DIO mice, 2 weeks treatment (20 mg/kg)"}}, "note": "Entries after “also recorded” stand apart in the source; their conditions may differ.", "data": [{"smiles": "O=C(Nc1ccc(Cl)c(Cl)c1)C12CC3CC(CC(C3)C1)C2", "note": "[Compound C3]", "values": [{"measurement": "GLUT4 translocation on its own", "setting": "[1]; in the absence of insulin, HBG4 C2C12 cells", "value": "no effect"}, {"measurement": "insulin-stimulated GLUT4 translocation", "setting": "[1]; in the presence of insulin, WT HBG4 C2C12 cells", "value": "significantly potentiated; also recorded: enhanced"}, {"measurement": "insulin-stimulated glucose uptake", "setting": "[2]", "value": "significantly improved; also recorded: increased"}, {"measurement": "insulin-stimulated translocation of endogenous GLUT4", "setting": "[3]", "value": "Enhancement"}, {"measurement": "insulin-induced luminescence (GLUT4 translocation) in vivo", "setting": "[4]", "value": "further increased"}, {"measurement": "glucose clearance in glucose tolerance test", "setting": "[5]", "value": "drastically improved; also recorded: significantly accelerated"}, {"measurement": "glucose handling in glucose tolerance test", "setting": "[6]; DIO mice (HFD 10 weeks), injected for 2 weeks (20 mg/kg)", "value": "drastically improved; also recorded: rapidly cleared glucose; also recorded: very significant improvement"}, {"measurement": "insulin response to the glucose challenge", "setting": "[6]; DIO mice, 20 mg/kg for 2 weeks, GTT", "value": "normal insulin response"}, {"measurement": "fasting blood glucose", "setting": "[6]; [9]", "value": "significantly decreased"}, {"measurement": "fasting plasma insulin", "setting": "[6]; [9]", "value": "significantly decreased"}, {"measurement": "liver triglyceride content", "setting": "[7]; DIO mice, compared to saline treated mice", "value": "significant decrease"}, {"measurement": "plasma level of liver enzyme ALT", "setting": "[7]; treated mice", "value": "Neither liver toxicity markers were increased"}, {"measurement": "plasma level of liver enzyme AST", "setting": "[7]; treated mice", "value": "Neither liver toxicity markers were increased"}, {"measurement": "PPARg agonist activity", "setting": "[8]", "value": "did not activate; also recorded: no agonist activity; also recorded: neither C3 nor C59 have PPARγ agonist activity"}]}]}
